Data: publication PMC4521866 (PLoS ONE, 2015)

Test: Solubility and structural stability of peptides
Type: physicochemical
Conditions: effect of adding HR2 hydrophilic residues to the LK21 N-terminus; qualitative

Molecule | solubility and structural stability
CC[C@H](C)[C@H](NC(=O)[C@H](Cc1ccc(O)cc1)NC(=O)[C@H](Cc1c[nH]c2ccccc12)NC(=O)[C@H](CC(C)C)NC(=O)[C@H](Cc1c[nH]c2ccccc12)NC(=O)[C@H](CC(N)=O)NC(=O)[C@@H](NC(=O)[C@@H](NC(=O)[C@H](CC(N)=O)NC(=O)[C@H](Cc1ccccc1)NC(=O)[C@H](Cc1c[nH]c2ccccc12)NC(=O)[C@H](CC(N)=O)NC(=O)[C@H](Cc1c[nH]c2ccccc12)NC(=O)[C@H](CC(C)C)NC(=O)[C@H](CO)NC(=O)[C@H](C)NC(=O)[C@H](Cc1c[nH]c2ccccc12)NC(=O)[C@H](CCCCN)NC(=O)[C@H](CC(=O)O)NC(=O)[C@H](CC(C)C)NC(=O)[C@H](CCC(=O)O)NC(=O)[C@H](CC(C)C)NC(=O)[C@H](CC(C)C)NC(=O)[C@H](CCC(=O)O)NC(=O)[C@H](CCC(N)=O)NC(C)=O)[C@@H](C)CC)[C@@H](C)O)C(=O)N[C@@H](CCCCN)C(N)=O [QK26] | greatly enhanced
CC[C@H](C)[C@H](NC(=O)[C@H](Cc1ccc(O)cc1)NC(=O)[C@H](Cc1c[nH]c2ccccc12)NC(=O)[C@H](CC(C)C)NC(=O)[C@H](Cc1c[nH]c2ccccc12)NC(=O)[C@H](CC(N)=O)NC(=O)[C@@H](NC(=O)[C@@H](NC(=O)[C@H](CC(N)=O)NC(=O)[C@H](Cc1ccccc1)NC(=O)[C@H](Cc1c[nH]c2ccccc12)NC(=O)[C@H](CC(N)=O)NC(=O)[C@H](Cc1c[nH]c2ccccc12)NC(=O)[C@H](CC(C)C)NC(=O)[C@H](CO)NC(=O)[C@H](C)NC(=O)[C@H](Cc1c[nH]c2ccccc12)NC(=O)[C@H](CCCCN)NC(=O)[C@H](CC(=O)O)NC(=O)[C@H](CC(C)C)NC(=O)[C@H](CCC(=O)O)NC(=O)[C@H](CC(C)C)NC(=O)[C@H](CC(C)C)NC(=O)[C@H](CCC(=O)O)NC(=O)[C@H](CCC(N)=O)NC(=O)[C@H](CCC(=O)O)NC(=O)[C@H](CC(N)=O)NC(=O)[C@H](CCCCN)NC(=O)[C@H](CCC(=O)O)NC(C)=O)[C@@H](C)CC)[C@@H](C)O)C(=O)N[C@@H](CCCCN)C(N)=O [EK30] | greatly enhanced
Ac-EESQNQQEKNEQELLELDKWASLWNWFNITNWLWYIK-NH2 [EK37] | greatly enhanced
